{"source": "paper PMC13385394", "about": "“Cryo-EM Structure of the TRPC1/5 Heteromer Enables Design of Antidepressant and Anxiolytic Drug with Reduced Side Effects” (Nature Communications, 2026)", "key": {"TRPC4 homomer": {"biological_target": "T1, TRPC4 homomer (Homo sapiens, UniProt Q9UBN4)", "T1 construct": "expressed in transfected cells", "T1 sequence (Q9UBN4 1-977)": "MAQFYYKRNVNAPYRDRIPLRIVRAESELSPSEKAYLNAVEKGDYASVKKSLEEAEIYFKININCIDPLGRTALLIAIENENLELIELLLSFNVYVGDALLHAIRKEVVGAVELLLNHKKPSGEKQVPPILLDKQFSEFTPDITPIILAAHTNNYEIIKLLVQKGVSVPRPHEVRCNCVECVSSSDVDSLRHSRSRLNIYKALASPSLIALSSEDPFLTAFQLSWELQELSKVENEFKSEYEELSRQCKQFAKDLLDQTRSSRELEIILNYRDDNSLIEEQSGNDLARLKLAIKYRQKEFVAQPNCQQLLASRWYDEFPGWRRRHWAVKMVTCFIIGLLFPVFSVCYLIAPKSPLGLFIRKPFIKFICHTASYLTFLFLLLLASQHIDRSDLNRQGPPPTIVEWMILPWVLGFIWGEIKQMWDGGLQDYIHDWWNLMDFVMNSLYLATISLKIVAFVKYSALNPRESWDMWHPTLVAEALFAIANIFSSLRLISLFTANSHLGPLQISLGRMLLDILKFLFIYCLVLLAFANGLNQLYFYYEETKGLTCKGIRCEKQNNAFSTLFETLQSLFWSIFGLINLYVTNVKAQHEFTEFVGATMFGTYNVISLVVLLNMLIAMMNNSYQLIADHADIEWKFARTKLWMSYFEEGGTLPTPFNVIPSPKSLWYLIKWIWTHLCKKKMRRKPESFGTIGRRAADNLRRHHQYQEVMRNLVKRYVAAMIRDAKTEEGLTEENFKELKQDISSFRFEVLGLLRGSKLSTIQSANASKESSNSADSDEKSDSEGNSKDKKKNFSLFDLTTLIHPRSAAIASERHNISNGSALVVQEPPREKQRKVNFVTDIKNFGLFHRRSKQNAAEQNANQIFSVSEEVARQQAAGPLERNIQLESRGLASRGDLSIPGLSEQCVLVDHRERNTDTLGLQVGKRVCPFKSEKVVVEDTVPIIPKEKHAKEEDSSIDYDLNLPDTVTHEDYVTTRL", "assay": "Whole-cell patch-clamp, inhibition of TRPC4 homomer", "format": "cell-based", "conditions": "read-out: IC50, TRPC4 homomers"}, "[1]": {"tested_on": "CUMS-induced depressive-like behaviors", "assay": "Forced swim test (FST) in CUMS model", "format": "in vivo, mouse", "conditions": "CUMS mice; 14 days once-daily oral; vs vehicle", "experimental": "The stressors included food and water deprivation, foot shock, wet bedding, cage tilting, restraint, shaking, and olfactory stimulation. These seven stressors were randomly applied each week to ensure unpredictability. The stress induction was maintained continuously for 28 days. Following model establishment, the tail suspension test (TST) was performed to confirm the successful induction of depressive-like behaviors. Mice that met the criteria were randomly assigned to experimental groups. Chronic Treatment: Mice were treated daily for 14 consecutive days. The SPT was conducted on day 11, and the forced swimming test (FST) was performed on day 14."}, "[2]": {"tested_on": "diet-induced obesity (DIO) mice", "assay": "Diet-induced obesity (DIO) model, body weight and food intake", "format": "in vivo, mouse", "conditions": "11 days once daily, HC-070 and JD03-02 10 mg/kg i.g., Semaglutide 0.123 mg/kg s.c.", "experimental": "A maximum of five mice were housed per cage during the acclimatization period, and three mice per cage during the experimental period. […] The day of administration was defined as day 1 (D1) of the experiment, with a single dose/day administered for 11 consecutive days. Daily observations were made on the animals’ general condition. Body weight was measured on days 1, 3, 5, 7, 9, and 11 post-administrations. Food intake was measured on days 1, 3, 5, 7, and 9 post-administrations by calculating the difference between the amount of food provided and the amount remaining in the cage, divided by the number of animals in the cage to determine the average food intake per mouse. The cumulative food intake during the experiment was calculated by summing the food intake measurements taken on different days."}, "TRPC1/5": {"biological_target": "T2, TRPC1/5 (Homo sapiens, UniProt P48995+Q9UL62)", "T2 construct": "Full-length, non-tagged hTRPC1 and hTRPC5 constructs are used for calcium flux assays; expressed in transfected cells; host or cells: HEK293T", "T2 sequence (P48995 whole entry)": "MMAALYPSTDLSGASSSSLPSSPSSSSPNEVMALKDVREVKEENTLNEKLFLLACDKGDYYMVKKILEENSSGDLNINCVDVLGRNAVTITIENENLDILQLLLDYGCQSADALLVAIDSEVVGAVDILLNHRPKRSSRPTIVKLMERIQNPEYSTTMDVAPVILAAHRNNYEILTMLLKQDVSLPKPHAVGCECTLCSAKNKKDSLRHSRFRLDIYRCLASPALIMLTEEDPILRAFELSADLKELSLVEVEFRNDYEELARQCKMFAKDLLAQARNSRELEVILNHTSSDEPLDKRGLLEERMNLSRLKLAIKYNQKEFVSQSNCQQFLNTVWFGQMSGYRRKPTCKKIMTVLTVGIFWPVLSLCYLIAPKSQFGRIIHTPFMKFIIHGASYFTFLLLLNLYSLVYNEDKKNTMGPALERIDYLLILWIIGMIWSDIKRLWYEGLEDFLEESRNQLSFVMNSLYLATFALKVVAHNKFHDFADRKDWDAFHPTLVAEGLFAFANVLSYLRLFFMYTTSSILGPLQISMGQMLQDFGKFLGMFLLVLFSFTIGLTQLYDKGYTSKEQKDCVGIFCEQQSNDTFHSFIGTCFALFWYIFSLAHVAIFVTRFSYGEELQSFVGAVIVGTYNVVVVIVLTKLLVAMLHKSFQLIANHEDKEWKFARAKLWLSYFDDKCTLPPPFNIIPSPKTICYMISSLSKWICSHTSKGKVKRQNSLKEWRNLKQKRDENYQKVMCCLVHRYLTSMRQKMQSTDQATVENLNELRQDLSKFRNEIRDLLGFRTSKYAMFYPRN", "T2 sequence (Q9UL62 whole entry)": "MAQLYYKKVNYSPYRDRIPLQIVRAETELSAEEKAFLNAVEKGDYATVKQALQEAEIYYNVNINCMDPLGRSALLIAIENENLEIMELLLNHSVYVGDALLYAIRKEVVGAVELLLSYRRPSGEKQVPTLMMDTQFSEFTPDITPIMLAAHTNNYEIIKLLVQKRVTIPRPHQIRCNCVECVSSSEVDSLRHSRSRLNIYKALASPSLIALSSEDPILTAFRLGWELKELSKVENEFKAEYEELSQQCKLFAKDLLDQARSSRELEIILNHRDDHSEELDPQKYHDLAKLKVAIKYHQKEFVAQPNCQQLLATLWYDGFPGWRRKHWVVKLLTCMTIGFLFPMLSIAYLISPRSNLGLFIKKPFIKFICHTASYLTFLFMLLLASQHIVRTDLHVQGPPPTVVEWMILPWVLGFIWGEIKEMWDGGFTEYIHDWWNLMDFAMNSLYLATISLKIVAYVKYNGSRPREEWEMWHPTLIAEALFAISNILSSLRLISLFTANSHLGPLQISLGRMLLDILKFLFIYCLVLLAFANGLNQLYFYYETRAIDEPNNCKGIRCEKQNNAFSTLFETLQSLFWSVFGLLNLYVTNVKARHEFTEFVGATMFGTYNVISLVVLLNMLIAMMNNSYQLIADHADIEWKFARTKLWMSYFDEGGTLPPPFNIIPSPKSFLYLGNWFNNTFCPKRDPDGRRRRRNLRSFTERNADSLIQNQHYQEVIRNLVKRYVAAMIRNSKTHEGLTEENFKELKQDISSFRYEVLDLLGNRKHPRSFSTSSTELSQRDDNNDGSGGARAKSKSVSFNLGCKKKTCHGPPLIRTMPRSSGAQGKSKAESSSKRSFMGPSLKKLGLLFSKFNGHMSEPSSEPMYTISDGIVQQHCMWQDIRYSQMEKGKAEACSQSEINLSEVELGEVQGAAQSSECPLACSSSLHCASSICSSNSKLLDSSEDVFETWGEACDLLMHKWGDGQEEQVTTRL", "assay": "Calcium flux assay (Calcium 5 kit, EA 100 nM), hTRPC1 + hTRPC5 in HEK293T cells", "format": "cell-based", "conditions": "calcium flux screening, 10 μM", "experimental": "Full-length, non-tagged hTRPC1 and hTRPC5 constructs are used for calcium flux assays. hTRPC5 is transfected alone or co-transfected with hTRPC1 into HEK293T cells (70–80% confluency) using PEI as the transfection reagent.\nThe culture medium is removed, and 100 µL of loading buffer (Calcium 5 Assay Kit) is added to each well, followed by a 1-h incubation at 37 °C in 5% CO2. Five minutes before measurement, molecules are added to each well at a final concentration of 10 µM under light-sensitive conditions."}, "mCPP-induced anxiety": {"tested_on": "mCPP-induced anxiety", "assay": "Open-field test (OFT), mCPP-induced anxiety model", "conditions": "single dose"}}, "note": "“Also recorded” adds a separate entry of the source.", "data": [{"smiles": "CN(C)CCCCn1c(=O)c2c(nc(Oc3cccc(Cl)c3)n2Cc2ccc(Cl)cc2)n(C)c1=O", "note": "[H08]", "values": [{"measurement": "IC50", "setting": "TRPC4 homomer", "value": 2380, "unit": "nM"}, {"measurement": "immobility (FST), repeated dosing", "setting": "[1]", "value": "reduced immobility"}, {"measurement": "body weight", "setting": "[2]", "value": "no significant effect; also recorded: did not affect body weight or food intake"}, {"measurement": "food intake", "setting": "[2]", "value": "no significant effect; also recorded: did not affect body weight or food intake"}, {"measurement": "OFT total distance traveled", "setting": "healthy C57BL/6J mice", "value": "no significant effect"}, {"measurement": "inhibition of TRPC1/5 heteromers (in words)", "setting": "TRPC1/5", "value": "strong inhibition"}, {"measurement": "OFT central zone entries and time in central zone", "setting": "mCPP-induced anxiety; mCPP mice", "value": "enhancing numbers of central zone entries and time spent in the central zone"}, {"measurement": "OFT total distance traveled", "setting": "mCPP-induced anxiety; mCPP-induced anxiety-like mice", "value": "no significant effect"}]}]}
